Results as given in patent EP0097039A1, “5-(E-2-halovinyl)-2'-deoxyuridine derivatives, processes for their preparation, pharmaceutical compositions containing them, and their use in treating viral infections” (BEECHAM GROUP PLC, priority 1982, dated 1983).
Where “and” joins values, the source holds several entries; their conditions need not be identical. Identical values can stand only once. Like-named read-outs stand apart in the source and are kept apart here.

Assays:
[1] = test system: Herpes Simplex type 1 virus (HFEM strain); assay: plaque reduction assay in Vero cells infected with Herpes Simplex type 1 virus; assay type: cell-based
Experimental: (§1) Vero (African Green Monkey Kidney) cells were grown to confluence in 24 well multidishes, each well being 1.6 cm in diameter. The cells were infected with Herpes Simplex type 1 virus (HFEM strain) and overlaid with 0.5 mL of 0.9% agarose (w/v) in maintenance medium in concentrations ranging from 100 to 0.03 µg/ml in half-log dilution steps, were added in 0.5 mL volume. The virus infected cultures were then incubated at 37 °C for 4 days before fixing in 4% formaldehyde solution and staining with carbolfuchsin.

[2] = cytotoxicity (minimum toxic concentration) in the infected Vero cell cultures; assay type: cell-based, African Green Monkey; conditions: monkey; minimum concentration of test compound which caused cytotoxicity; Vero cells, highest concentration tested 100 µg/ml; read-out: MTD
Experimental: as §1

[3] = test system: Vero (African Green Monkey Kidney) cells; assay: as above; assay type: cell-based; conditions: vero cells, 96 h
Experimental: as §1

[4] = Human alphaherpesvirus 1, 96 h, concentration causing 50% reduction in number of virus plaques, Vero cells, HSV-1 HFEM strain, 4 days at 37 C, read-out: PDD50 (the source's name)
[5] = Human alphaherpesvirus 1, 96 h, same PD50 expressed in µM, Vero cells, HSV-1 HFEM strain, 4 days at 37 C, read-out: PDD50 (the source's name)
[6] = Human alphaherpesvirus 1, Vero, 96 h, read-out: PDD50
[7] = concentration causing 50% reduction in number of virus plaques, Vero cells, HSV-1 HFEM strain, 4 days at 37 C
[8] = same PD50 expressed in µM, Vero cells, HSV-1 HFEM strain, 4 days at 37 C, read-out: PDD50 (the source's name)

Compound	EC50 [1, 4] [µg/mL]	EC50 [1, 5] [µM]	MCC at 96 h [2] [µg/mL]	EC50 [1, 6]	PDD50 [1, 7] [µg/mL]	EC50 [1, 8] [µM]	MTD [3] [µg/mL]
O=C(CCl)OC[C@H]1O[C@@H](n2cc(/C=C/Br)c(=O)[nH]c2=O)C[C@@H]1OC(=O)CCl [Example 1, E-5-(2-Bromovinyl)-3',5'-bis (chloroacetyl)-2'-deoxyuridine]	0.14	0.29	> 100	–	–	–	–
O=C(CCl)OC[C@H]1O[C@@H](n2cc(/C=C/Br)c(=O)[nH]c2=O)C[C@@H]1O [Example 2, E-5-(2-Bromovinyl)-5'-chloroacetyl-2'-deoxyuridine]	0.12	0.29	> 100	–	–	–	–
CC(Cl)C(=O)OC[C@H]1O[C@@H](n2cc(/C=C/Br)c(=O)[nH]c2=O)C[C@@H]1OC(=O)C(C)Cl (stereo partly drawn) [Example 4]	0.14	0.27	> 100	–	–	–	–
CC(Cl)C(=O)OC[C@H]1O[C@@H](n2cc(/C=C/Br)c(=O)[nH]c2=O)C[C@@H]1O (stereo partly drawn) [Example 5]	0.14	0.33	> 100	–	–	–	–
CCCN(CCC)S(=O)(=O)c1ccc(C(=O)OCC(=O)OC[C@H]2O[C@@H](n3cc(/C=C/Br)c(=O)[nH]c3=O)C[C@@H]2OC(=O)COC(=O)c2ccc(S(=O)(=O)N(CCC)CCC)cc2)cc1 [Example 6, E-5-(2-Bromovinyl)-3',5'-Bis (4-dipropylsulphamoylbenzoyloxyacetyl)-2'-deoxyuridine]	2.03	2.06	> 100	–	–	–	–
CCCN(CCC)S(=O)(=O)c1ccc(C(=O)OCC(=O)OC[C@H]2O[C@@H](n3cc(/C=C/Br)c(=O)[nH]c3=O)C[C@@H]2O)cc1 [Example 7, E-5-(2 Bromovinyl)-5'-(4-dipropylsulphamoylbenzoyloxyacetyl)-2'-deoxyuridine]	0.24	0.37	> 100	–	–	–	–
CCCN(CCC)S(=O)(=O)c1ccc(C(=O)OCC(=O)O[C@H]2C[C@H](n3cc(/C=C/Br)c(=O)[nH]c3=O)O[C@@H]2CO)cc1 [Example 8, E-5-(2-Bromovinyl)-3'-(4-dipropylsulphanoylbenzoyloxyacetyl)-2'-deoxyuridine]	0.22	0.33	> 100	–	–	–	–
CC(C)(Oc1ccc(Cl)cc1)C(=O)OCC(=O)OC[C@H]1O[C@@H](n2cc(/C=C/Br)c(=O)[nH]c2=O)C[C@@H]1OC(=O)COC(=O)C(C)(C)Oc1ccc(Cl)cc1 [Example 9, E-5-(2 Bromovinyl)-3',5'-bis(2-(4-chlorophenoxy)-2-methylpropionyloxy-acetyl]-2'-deoxyuridine]	1.47	1.75	> 100	–	–	–	–
CC(=O)OC(C)C(=O)OC[C@H]1O[C@@H](n2cc(/C=C/Br)c(=O)[nH]c2=O)C[C@@H]1O (stereo partly drawn) [Example 10, E-5-(2-Bromovinyl)-5'-(2-acetoxypropionyl)-2'-deoxyuridine]	0.18	0.4	> 100	–	–	–	–
CC(C)(C)[Si](C)(C)O[C@@H](Cc1ccccc1)C(=O)OC[C@H]1O[C@@H](n2cc(/C=C/Br)c(=O)[nH]c2=O)C[C@@H]1OC(=O)[C@H](Cc1ccccc1)O[Si](C)(C)C(C)(C)C [Example 18, E-5-(2-Bromovinyl)-3',5'-bis(L-2-t-butyldimethylsilyloxy-3-penylpropionyl)-2'-deoxyuridine]	–	–	> 100	> 100 µg/mL	–	–	–
O=C(OC[C@H]1O[C@@H](n2cc(/C=C/Br)c(=O)[nH]c2=O)C[C@@H]1OC(=O)[C@@H](O)Cc1ccccc1)[C@@H](O)Cc1ccccc1 [Example 19, E-5-(2-bromovinyl)-3', 5' -bis(L-2-hydroxy-3-phenylpropionyl)-2'-deoxyuridine]	0.43	0.68	> 100	–	–	–	–
O=C(O[C@H]1C[C@H](n2cc(/C=C/Br)c(=O)[nH]c2=O)O[C@@H]1CO)C(Cl)c1ccccc1 (stereo partly drawn) [Example 20, E-5-(2-Bromovinyl)-3'-(2-chlorophenylacetyl)-2'-deoxyuridine]	0.18	0.37	> 100	–	–	–	–
O=C(OC[C@H]1O[C@@H](n2cc(/C=C/Br)c(=O)[nH]c2=O)C[C@@H]1O)C(Cl)c1ccccc1 (stereo partly drawn) [Example 21]	0.07	0.14	> 100	–	–	–	–
O=C(OC[C@H]1O[C@@H](n2cc(/C=C/Br)c(=O)[nH]c2=O)C[C@@H]1OC(=O)C(Cl)c1ccccc1)C(Cl)c1ccccc1 (stereo partly drawn) [Example 22]	0.34	0.53	> 100	–	–	–	–
O=C(OC[C@H]1O[C@@H](n2cc(/C=C/Br)c(=O)[nH]c2=O)C[C@@H]1O)[C@@H](O)c1ccccc1 [Example 23, 5-(E-2-Bromovinyl)-2'-deoxy-5'-O-[(2S)-hydroxyphenylacetyl]uridine]	0.16	0.34	> 100	–	–	–	–
O=C(OC[C@H]1O[C@@H](n2cc(/C=C/Br)c(=O)[nH]c2=O)C[C@@H]1OC(=O)[C@@H](O)c1ccccc1)[C@@H](O)c1ccccc1 [Example 24, 5-(E-2-Bromovinyl)-2'-deoxy-3', 5'-di-O-[(2S)-hydroxyphenylacetyl]uridine]	0.45	0.75	> 100	–	–	–	–
CC(C)C[C@H](O)C(=O)OC[C@H]1O[C@@H](n2cc(/C=C/Br)c(=O)[nH]c2=O)C[C@@H]1O [Example 25, 5-(E-2-Bromovinyl)-2'-deoxy-5'-0-(L-2-hydroxy-4-methyl-pentanoyl)uridine]	0.15	0.34	> 100	–	–	–	–
CC(C)C[C@H](O)C(=O)OC[C@H]1O[C@@H](n2cc(/C=C/Br)c(=O)[nH]c2=O)C[C@@H]1OC(=O)[C@@H](O)CC(C)C [Example 26, 5-(E-2-Bromovinyl)-2'-deoxy-3',5-di-O-(L-2-hydroxy-4-methylpentanoyl)uridine]	0.16	0.29	> 100	–	–	–	–
COCC(=O)OC[C@H]1O[C@@H](n2cc(/C=C/Br)c(=O)[nH]c2=O)C[C@@H]1O [Example 27, 5-(E-2-Bromovinyl)-2'-deoxy-5'-O-(methoxyacetyl)uridine]	0.12	0.3	> 100	–	–	–	–
COCC(=O)OC[C@H]1O[C@@H](n2cc(/C=C/Br)c(=O)[nH]c2=O)C[C@@H]1OC(=O)COC [Example 28, 5-(E-2-Bromovinyl)-2'-deoxy-3',5'-di-O-(methoxyacetyl)-uridine]	0.17	0.36	> 100	–	–	–	–
O=C(OC[C@H]1O[C@@H](n2cc(/C=C/Br)c(=O)[nH]c2=O)C[C@@H]1O)[C@H](O)c1ccccc1 [Example 29]	0.22	0.47	> 100	–	–	–	–
O=C(OC[C@H]1O[C@@H](n2cc(/C=C/Br)c(=O)[nH]c2=O)C[C@@H]1OC(=O)[C@H](O)c1ccccc1)[C@H](O)c1ccccc1 [Example 30]	0.66	1.1	> 100	–	–	–	–
CC(C)C[C@H](O[Si](C)(C)C(C)(C)C)C(=O)OC[C@H]1O[C@@H](n2cc(/C=C/Br)c(=O)[nH]c2=O)C[C@@H]1O [Example 31, 5-(E-2-Bromovinyl)-5'-O-(L-2-t-butyldimethylsilyloxy-4-methylpentanoyl)-2'-deoxyurudine]	–	–	> 100	0.53 µg/mL and 940 nM	–	–	–
CC(C)C[C@H](O[Si](C)(C)C(C)(C)C)C(=O)OC[C@H]1O[C@@H](n2cc(/C=C/Br)c(=O)[nH]c2=O)C[C@@H]1OC(=O)[C@H](CC(C)C)O[Si](C)(C)C(C)(C)C [Example 32, 5-(E-2-Bromovilnyl)-3' ,5'-di-O-(L-2-t-butyldimethylsilyloxy-4-methylpentanoyl)-2'-deoxyuridirie]	–	–	> 100	4.9 µg/mL and 6.2 µM	–	–	–
CCC(Br)C(=O)OC[C@H]1O[C@@H](n2cc(/C=C/Br)c(=O)[nH]c2=O)C[C@@H]1O (stereo partly drawn) [Example 33, 5-(E-2-Bromovin^yl)-5'-0-(2-bromobutyryl)-2'-deoxyuridine]	0.16	0.37	> 100	–	–	–	–
CCC(Br)C(=O)OC[C@H]1O[C@@H](n2cc(/C=C/Br)c(=O)[nH]c2=O)C[C@@H]1OC(=O)C(Br)CC (stereo partly drawn) [Example 34, 5-(E-2-Bromovinyl)-3'-5'-di-O-(2-bromobutyryl) -2'-deoxyuridine]	0.2	0.32	100	–	–	–	–
O=C(COc1ccccc1)OC[C@H]1O[C@@H](n2cc(/C=C/Br)c(=O)[nH]c2=O)C[C@@H]1O [Example 35, 5-(E-2-Bromovinyl)-2'-deoxy-5'-O-(phenoxyacetyl)uridine]	0.18	0.38	> 100	–	–	–	–
O=C(COc1ccccc1)OC[C@H]1O[C@@H](n2cc(/C=C/Br)c(=O)[nH]c2=O)C[C@@H]1OC(=O)COc1ccccc1 [Example 36, 5-(E-2-Bromovinyl)-2'-deoxy-3',5'-di-0-(phenoxyacetyl)-uridine]	0.57	0.95	> 100	–	–	–	–
E-5-(2-Bromovinyl)-3'-trimethylsilyl-5'-(4-dipropylsulphamoylbenzoyl- oxyacetyl)-2'-deoxyuridine [Example 14]	–	–	–	–	0.32	0.48	>100
E-5-(2-Bromovinyl)-5'-(L-2-t-butyldimethylsilyloxy-3-phenylpropionyl)-2'-deoxyuridine [Example 16]	–	–	–	–	0.63	0.68	>100
